Values of other authors as cited in US20100035949A1 (priority 2006, published 2010).

What was measured:
[1] = pH dependent; decreases as pH increases from acidic to neutral
[2] = humans

permeability [1]: low
oral bioavailability ([2]; known dosage forms): about 25%
oral bioavailability, range ([2]; wide range with large inter- and intra-subject variabilities): 25-40%
Compound: CCCCC(=O)N(Cc1ccc(-c2ccccc2-c2nnn[nH]2)cc1)[C@H](C(=O)O)C(C)C [valsartan, (S)-N-valeryl-N-{[2′-(1H-tetrazole-5-yl)-biphenyl4-yl]-methyl}-valine]
